In article PMC12390126, “Human Skin Permeation of Ethoxy- and Propoxypropanol Commonly Found in Water-Based Products” (Toxics, 2025):
Entries after “also recorded” stand apart in the source; their conditions may differ.

Experiments:
[1] = In vitro flow-through diffusion cell skin permeation; type: in vitro ADME, human; conditions: for first quantified in the receptor fluid after application: Figure 1A, first 3 h of exposure; for permeability rate J diluted in water compared to neat: aqueous 50:50 versus neat; for time to permeate previously frozen human skin: aqueous PGEs applied
Source text: Human abdominal full thickness skin was obtained as surgical waste from the Lausanne University Hospital (CHUV) and the Department of Musculoskeletal Medicine (DAL) Biobank, Switzerland, according to the Swiss ethics in the canton Vaud (CER-VD: Commission cantonal d’éthique de la recherche sur l’être humain, ethical protocol 264/12). The surgeon obtained written consent from the patients before the start of the operation. The collected skin was anonymized, and only sex and age were provided for this study. Human skin was obtained directly after the surgery and immediately dermatomed to a thickness of 800 µm (Acculan®II, B. Braun/Aesculap, Sempach, Switzerland) to account for any potential storage effects on its in vitro mass balance. The experiments were run with triplicate skin samples (n = 3) from three different donors giving a total of nine samples for each experiment. The skin samples used for this study were stored at −20 °C for up to four years. The experiments were performed only when a sufficient number of skin samples was available from three different donors.
The in vitro flow-through diffusion cell experiments were used to assess skin permeation kinetics after neat and aqueous application, separately. The abdominal human frozen skin was thawed for one hour at room temperature and cut into disks (exposed area of 1 cm^2). These were mounted onto the diffusion cells between the donor and the receptor chamber filled with saline water (0.9% NaCl (aq), 8 mL). Four different experimental conditions were used: application of solutions containing either PGEE or PGPE (neat) and application of aqueous solutions of PGEE or PGPE (50:50 v/v mixture). Each experiment was performed with triplicate cells from three different donors ([…] diffusion cells exposed to PGE per experimental condition) and one control cell per skin donor (n = 3 diffusion cells not exposed to PGE). The trans epidermal water loss (TEWL; VapoMeter wireless, Delfin Technologies Ltd., Kuopio, Finland) was measured for each skin disk to assess skin sample integrity. Skin samples with a TEWL greater than 11 g/m^2/h were excluded. TEWL was measured again at the end of each experiment to confirm skin integrity throughout the experiment.
The in vitro flow-through diffusion cell experiments were carried out using a rack-mounted system consisting of nine in-line jacketed flow-through diffusion cells (PermeGear® from SES Analytical System, Bechenheim, Germany). A peristaltic pump (Ismatec IPC-N, IDEX Health and Science GmbH, Wertheim-Mondfeld, Germany) operated at a flow rate of 200 µL/min for the first 180 min to ensure that the transition point—when the glycol ethers reached the receptor fluid—was accurately captured for these rapidly diffusing substances. The pump rate was then adjusted to 40 µL/min for the remaining time until 24 h. These collection times and flow rates were set to achieve steady state. The diffusion cell system was equipped with a magnetic stirrer in each cell to ensure a constant and uniform mixing of the substances in the reservoir fluid. The diffusion cells were kept at 32 °C with a heated water bath (Haake SC 100 Digital Immersion Circulator, Thermo Scientific, Newington, NH, USA). A fraction collector (FC 204, Gilson Inc., Middleton, WI, USA) automatically sampled the reservoir fluid at different time points for 24 h, i.e., at 0.5, 1, 1.5, 2, 2.5, 3, 6, 9, 12, 15, 18, 21, and 24 h. PGPE (>95%) and PGEE (>99%) (Chemic Brunschwig AG, Basel, Switzerland) were applied separately onto the skin samples either neat substances or aqueous solutions (Milli-Q Advantage A10 System, Millipore AG, MerckMillipore, Schaffhouse, Switzerland). We applied 500 µL (aqueous application) and 200 µL (neat application) of them to increase the likelihood of reaching steady state permeation conditions. All collected samples were stored at 4 °C after the experiment. […]

[2] = Mass balance of flow-through diffusion cell experiments; type: in vitro ADME, human; conditions: for Receptor Chamber (percentage of applied dose): remaining fluid at end
Experimental: A mass balance was performed only for flow-through diffusion cell experiments following the OECD guidelines, where the mean recovery should be 100 ± 10% [20]. The following components of the test system were analyzed to determine recovery: donor chamber, skin, and receptor chamber. The donor chamber was rinsed three times with 500 µL of water (donor chamber samples), the skin disk was sonicated three times for five minutes in water (skin samples), and the remaining fluid receptor chamber was collected (receptor chamber samples). If liquid was present in the donor chamber at the end of the experiment, it was also collected and analyzed with the donor chamber samples. PGE concentrations were quantified in all mass balance samples by GC-MS/MS, i.e., donor chamber rinsing water, water collected after sonication of skin, and remaining fluid receptor chamber. Mean concentrations of PGEE and PGPE were calculated for all cells in both conditions (neat or aqueous), and the results were reported as the percentage of the applied dose.

Q: For `CCCOCC(C)O` (stereo not shown) [PGPE, propoxypropanol], which “first quantified in the receptor fluid after application” value [1] is on record?
A: Its value is 30 min.

Q: And the “permeability rate J diluted in water compared to neat” value [1]?
A: Its value is “four times greater; also recorded: more than four times quicker”.

Q: What about the “time to permeate previously frozen human skin” value [1] of the same compound?
A: Its value is no more than 30 min.

Q: What about the “Donor Chamber (percentage of applied dose)” value ([2]; 50:50 (aq)) of the same compound?
A: Its value is 0.05%.

Q: And the “Receptor Chamber over 24 h (sum of receptor fluid collected at different time points)” value ([2]; 50:50 (aq))?
A: Its value is 24.1%.

Q: And the “Recovery (percentage of applied dose)” value ([2]; 50:50 (aq))?
A: The value was 24.6%.

Q: And the “Receptor Chamber (percentage of applied dose)” value ([2]; 50:50 (aq))?
A: Its value is 0.4%.

Q: And the “Donor Chamber (percentage of applied dose)” value ([2]; neat)?
A: Its value is 0.18%.

Q: What about the “Receptor Chamber over 24 h (sum of receptor fluid collected at different time points)” value ([2]; neat) of the same compound?
A: The value was 9.4%.

Q: What about the “Recovery (percentage of applied dose)” value ([2]; neat) of the same compound?
A: Its value is 9.9%.

Q: And the “Receptor Chamber (percentage of applied dose)” value ([2]; neat)?
A: Its value is 0.3%.

Q: Which results are given for `CCOCC(C)O` (stereo not shown) [PGEE]?
A: first quantified in the receptor fluid after application [1]: 30 min; permeability rate J diluted in water compared to neat [1]: double; time to permeate previously frozen human skin [1]: ≤ 30 min; Donor Chamber (percentage of applied dose) ([2]; 50:50 (aq)): 0.02%; Receptor Chamber over 24 h (sum of receptor fluid collected at different time points) ([2]; 50:50 (aq)): 44.0%; Recovery (percentage of applied dose) ([2]; 50:50 (aq)): 45.1%; Receptor Chamber (percentage of applied dose) ([2]; 50:50 (aq)): 1.1%; Donor Chamber (percentage of applied dose) ([2]; neat): 0.0003%; Receptor Chamber over 24 h (sum of receptor fluid collected at different time points) ([2]; neat): 16.8%; Recovery (percentage of applied dose) ([2]; neat): 17.3%; Receptor Chamber (percentage of applied dose) ([2]; neat): 0.5%
